Results taken from US20100056526A1, “HETEROMONOCYCLIC COMPOUND AND USE THEREOF” (Takeda Pharmaceutical Company Limited, priority 2006, published 2010).
Where a name gives a salt, the structure may show the parent alone. Read-outs that look alike come from different tables or passages of the source.

Assays:
PPARγ = biological target: T1, PPARγ (Homo sapiens, UniProt P37231); assay: Evaluation of PPARγ activating action (luciferase reporter in PPARγ:RXRα:4ERPP/CHO-K1 cells); type: cell-based; details: CHO-K1, 24 h, read-out: PPARγ activating action (activation % (10^−6 M))
T1 construct: expressed in transfected cells; host or cells: CHO-K1
T1 sequence (P37231 1-477 isoform P37231-2): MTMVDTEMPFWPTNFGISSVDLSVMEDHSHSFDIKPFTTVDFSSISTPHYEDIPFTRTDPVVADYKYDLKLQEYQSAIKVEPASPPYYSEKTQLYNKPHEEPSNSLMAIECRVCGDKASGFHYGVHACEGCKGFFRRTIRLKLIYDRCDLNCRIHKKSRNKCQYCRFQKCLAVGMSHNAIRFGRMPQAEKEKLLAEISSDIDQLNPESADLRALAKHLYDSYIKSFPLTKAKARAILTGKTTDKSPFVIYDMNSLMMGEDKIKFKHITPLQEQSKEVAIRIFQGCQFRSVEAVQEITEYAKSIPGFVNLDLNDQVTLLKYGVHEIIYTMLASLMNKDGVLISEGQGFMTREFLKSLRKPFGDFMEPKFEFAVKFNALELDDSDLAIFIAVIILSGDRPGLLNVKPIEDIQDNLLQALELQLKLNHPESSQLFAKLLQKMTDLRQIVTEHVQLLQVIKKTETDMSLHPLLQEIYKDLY
T1 sequence (P19793 1-462 partner): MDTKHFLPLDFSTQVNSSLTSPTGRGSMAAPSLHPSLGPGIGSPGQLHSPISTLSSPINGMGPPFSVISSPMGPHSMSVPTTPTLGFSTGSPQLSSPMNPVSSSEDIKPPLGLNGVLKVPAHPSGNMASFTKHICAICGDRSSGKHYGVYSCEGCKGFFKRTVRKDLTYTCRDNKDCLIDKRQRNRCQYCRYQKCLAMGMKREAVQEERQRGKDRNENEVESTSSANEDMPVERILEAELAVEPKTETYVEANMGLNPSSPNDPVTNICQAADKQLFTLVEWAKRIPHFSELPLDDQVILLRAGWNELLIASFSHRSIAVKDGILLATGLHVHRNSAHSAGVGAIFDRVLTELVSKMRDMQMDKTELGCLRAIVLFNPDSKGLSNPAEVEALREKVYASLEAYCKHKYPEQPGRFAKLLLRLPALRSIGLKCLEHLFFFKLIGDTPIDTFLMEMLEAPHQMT
How it was run: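 Activity is expressed as percent, where vehicle gives 0% and 1 μM compound X gives 100%, based on luciferase luminescence. Reporter CHO-K1 cells co-expressing PPARγ:RXRα with a 4ERPP-driven luciferase were incubated with test compound for one day at 37 °C in medium with 0.1% fatty acid-free BSA.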

human AT1 receptor = biological target: T2, human AT1 receptor (Homo sapiens, UniProt P30556); assay: Binding assay using human AT1 receptor-expressing CHO-K1 cell membrane fraction ([125I]-angiotensin II); details: 22.5 pM [125I]-angiotensin II, 9 μg AT1 membrane, 1 hr room temperature; read-out: AT1 receptor binding inhibitory action (IC50 (nM))
T2 construct: expressed in transfected cells; host or cells: CHO-K1
T2 sequence (P30556 1-359): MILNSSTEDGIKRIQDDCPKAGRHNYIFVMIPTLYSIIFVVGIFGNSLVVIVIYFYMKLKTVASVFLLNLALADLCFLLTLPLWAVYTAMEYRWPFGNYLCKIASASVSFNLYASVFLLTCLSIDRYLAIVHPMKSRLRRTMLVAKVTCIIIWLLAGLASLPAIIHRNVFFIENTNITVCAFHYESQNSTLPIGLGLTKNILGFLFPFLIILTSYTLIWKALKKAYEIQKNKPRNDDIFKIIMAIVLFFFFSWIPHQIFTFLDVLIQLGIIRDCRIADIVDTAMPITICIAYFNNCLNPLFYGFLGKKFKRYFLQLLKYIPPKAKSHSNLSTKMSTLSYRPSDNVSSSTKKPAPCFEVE
How it was run: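 Radioligand displacement: test compound competed with [125I]-angiotensin II (22.5 pM) on stable CHO-K1 AT1 membrane fraction, 1 hr, room temperature, Tris pH 7.4/MgCl2 buffer ± 0.3 mg/mL BSA. Filtration then scintillation counting; 1 μM CV-11974 defined nonspecific binding. Values are IC50s.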

[1] = test compound 10^−6 M, luciferase activity relative to control compound X (1 μM) = 100%, non-administration group = 0%

| IC50 (human AT1 receptor) [nM] | activation at 1 µM (PPARγ; [1]) [%] | SMILES | activation at 1 µM (PPARγ) [%] |
| --- | --- | --- | --- |
| 3.4 | 30.2 | CCCc1nc(C)n(-c2ccc(OC(C)C)nc2)c(=O)c1Cc1ccc(-c2ccccc2-c2noc(=O)[nH]2)cc1 [Example 325, 3-(6-isopropoxypyridin-3-yl)-2-methyl-5-{[2′-(5-oxo-4,5-dihydro-1,2,4-oxadiazol-3-yl)biphenyl-4-yl]methyl}-6-propylpyrimidin-4(3H)-one] |  |
| 1.3 | 31 | CCCc1nc(CC)c(-c2ccc(OC(C)(C)CO)cc2)c(=O)n1Cc1ccc(-c2ccccc2-c2noc(=O)[nH]2)cc1F [Example 511, 6-ethyl-3-{[3-fluoro-2′-(5-oxo-4,5-dihydro-1,2,4-oxadiazol-3-yl)biphenyl-4-yl]methyl}-5-[4-(2-hydroxy-1,1-dimethylethoxy)phenyl]-2-propylpyrimidin-4(3H)-one] |  |
| 1.7 | 34.3 | CCCCc1nc(C)n(Cc2ccccn2)c(=O)c1Cc1ccc(-c2ccccc2-c2noc(=O)[nH]2)cc1 [Example 50, 6-butyl-2-methyl-5-{[2′-(5-oxo-4,5-dihydro-1,2,4-oxadiazol-3-yl)biphenyl-4-yl]methyl}-3-(pyridin-2-ylmethyl)pyrimidin-4(3H)-one] |  |
| 1.6 | 33.7 | CCCc1nc(CC)n(-c2ccc(O[C@@H]3C[C@@H](C)O[C@@H](C)C3)cc2)c(=O)c1Cc1ccc(-c2ccccc2-c2noc(=O)[nH]2)cc1 [Example 417, 3-(4-{[(2R,4s,6S)-2,6-dimethyltetrahydro-2H-pyran-4-yl]oxy}phenyl)-2-ethyl-5-{[2′-(5-oxo-4,5-dihydro-1,2,4-oxadiazol-3-yl)biphenyl-4-yl]methyl}-6-propylpyrimidin-4(3H)-one] |  |
| 1.8 | 24.1 | CCCc1nc(C)n(-c2ccc3c(c2)CC(C)(C)O3)c(=O)c1Cc1ccc(-c2ccccc2-c2noc(O)n2)c(F)c1 [Example 402, 3-(2,2-dimethyl-2,3-dihydro-1-benzofuran-5-yl)-5-{[2-fluoro-2′-(5-oxo-4,5-dihydro-1,2,4-oxadiazol-3-yl)biphenyl-4-yl]methyl}-2-methyl-6-propylpyrimidin-4(3H)-one] |  |
| 2.2 | 50.6 | CCCc1nc(C)n(-c2ccc(OC(C)C)cc2)c(=O)c1Cc1ccc(-c2ccccc2-c2noc(=O)[nH]2)cc1Cl [Example 396, 5-{[3-chloro-2′-(5-oxo-4,5-dihydro-1,2,4-oxadiazol-3-yl)biphenyl-4-yl]methyl}-3-(4-isopropoxyphenyl)-2-methyl-6-propylpyrimidin-4(3H)-one] |  |
| 2.2 | 34.2 | CCCc1nc(C)n(-c2ccc3c(c2)CCC(C)(C)O3)c(=O)c1Cc1ccc(-c2ccccc2-c2noc(=O)[nH]2)cc1 [Example 131, 3-(2,2-dimethyl-3,4-dihydro-2H-chromen-6-yl)-2-methyl-5-{[2′-(5-oxo-4,5-dihydro-1,2,4-oxadiazol-3-yl)biphenyl-4-yl]methyl}-6-propylpyrimidin-4(3H)-one] |  |
| 1.8 | 31.6 | CCCc1nc(C)n(-c2ccc3c(c2)CC(C)(C)O3)c(=O)c1Cc1ccc(-c2ccccc2-c2noc(=O)[nH]2)cc1 [Example 239, 3-(2,2-dimethyl-2,3-dihydro-1-benzofuran-5-yl)-2-methyl-5-{[2′-(5-oxo-4,5-dihydro-1,2,4-oxadiazol-3-yl)biphenyl-4-yl]methyl}-6-propylpyrimidin-4(3H)-one] |  |
| 1.5 | 25.3 | CCCc1nc(C)n(-c2ccc(OC(C)C)cc2)c(=O)c1Cc1ccc(-c2ccccc2-c2noc(=O)[nH]2)c(F)c1 [Example 401, 5-{[2-fluoro-2′-(5-oxo-4,5-dihydro-1,2,4-oxadiazol-3-yl)biphenyl-4-yl]methyl}-3-(4-isopropoxyphenyl)-2-methyl-6-propylpyrimidin-4(3H)-one] |  |

Continued, compound first:

| SMILES | IC50 (human AT1 receptor) [nM] | activation at 1 µM (PPARγ; [1]) [%] | activation at 1 µM (PPARγ) [%] |
| --- | --- | --- | --- |
| CCCc1nc(CC)c(Oc2cccc(OC)c2)c(=O)n1Cc1ccc(-c2ccccc2-c2noc(O)n2)cc1 [Example 488, 6-ethyl-5-(3-methoxyphenoxy)-3-{[2′-(5-oxo-4,5-dihydro-1,2,4-oxadiazol-3-yl)biphenyl-4-yl]methyl}-2-propylpyrimidin-4(3H)-one potassium salt] | 1.9 |  | 16.7 |
| CCCc1nc(C)n(-c2ccc(OC(C)C)cc2)c(=O)c1Cc1ccc(-c2ccccc2-c2noc(=O)[nH]2)cc1F [Example 141, 5-{[3-fluoro-2′-(5-oxo-4,5-dihydro-1,2,4-oxadiazol-3-yl)biphenyl-4-yl]methyl}-3-(4-isopropoxyphenyl)-2-methyl-6-propylpyrimidin-4(3H)-one] | 1.8 | 38.3 |  |
| CCCc1nc(C)c(CC2CCCCO2)c(=O)n1Cc1ccc(-c2ccccc2-c2noc(=O)[nH]2)cc1 (stereo not drawn) [Example 7, 6-methyl-3-{[2′-(5-oxo-4,5-dihydro-1,2,4-oxadiazol-3-yl)biphenyl-4-yl]methyl}-2-propyl-5-(tetrahydro-2H-pyran-2-ylmethyl)pyrimidin-4(3H)-one] | 1.4 | 42.6 |  |
| CCCc1nc(CC)c(-c2ccc(OC(F)(F)F)cc2)c(=O)n1Cc1ccc(-c2ccccc2-c2noc(O)n2)cc1 [Example 457, 6-ethyl-3-{[2′-(5-oxo-4,5-dihydro-1,2,4-oxadiazol-3-yl)biphenyl-4-yl]methyl}-2-propyl-5-[4-(trifluoromethoxy)phenyl]pyrimidin-4(3H)-one] | 3.5 | 36 |  |
| CCCc1nc(CC)n(-c2ccc(OC3CCC(=O)CC3)cc2)c(=O)c1Cc1ccc(-c2ccccc2-c2noc(=O)[nH]2)cc1 [Example 416, 2-ethyl-3-{4-[(4-oxocyclohexyl)oxy]phenyl}-5-{[2′-(5-oxo-4,5-dihydro-1,2,4-oxadiazol-3-yl)biphenyl-4-yl]methyl}-6-propylpyrimidin-4(3H)-one] | 1.2 | 53.5 |  |
| CCCc1nc(CC)n(-c2ccc(OC3(COC)CCCC3)cc2)c(=O)c1Cc1ccc(-c2ccccc2-c2noc(=O)[nH]2)cc1 [Example 389, 2-ethyl-3-(4-{[1-(methoxymethyl)cyclopentyl]oxy}phenyl)-5-{[2′-(5-oxo-4,5-dihydro-1,2,4-oxadiazol-3-yl)biphenyl-4-yl]methyl}-6-propylpyrimidin-4(3H)-one] | 1.8 | 18.1 |  |
| CCCCc1nc(C2CC2)n(-c2ccc3c(c2)CCO3)c(=O)c1Cc1ccc(-c2ccccc2-c2noc(=O)[nH]2)cc1 [Example 112, 6-butyl-2-cyclopropyl-3-(2,3-dihydro-1-benzofuran-5-yl)-5-{[2′-(5-oxo-4,5-dihydro-1,2,4-oxadiazol-3-yl)biphenyl-4-yl]methyl}pyrimidin-4(3H)-one] | 1.7 | 52.1 |  |
| CCCc1nc(OC)n(-c2ccc(OC(C)(C)C)cc2)c(=O)c1Cc1ccc(-c2ccccc2-c2noc(O)n2)cc1 [Example 369, 3-(4-tert-butoxyphenyl)-2-methoxy-5-{[2′-(5-oxo-4,5-dihydro-1,2,4-oxadiazol-3-yl)biphenyl-4-yl]methyl}-6-propylpyrimidin-4(3H)-one] | 1.9 | 36.3 |  |
| CCCc1nc(C)n(-c2ccc(OC(C)CF)cc2)c(=O)c1Cc1ccc(-c2ccccc2-c2noc(=O)[nH]2)cc1 (stereo not drawn) [Example 277, 3-[4-(2-fluoro-1-methylethoxy)phenyl]-2-methyl-5-{[2′-(5-oxo-4,5-dihydro-1,2,4-oxadiazol-3-yl)biphenyl-4-yl]methyl}-6-propylpyrimidin-4(3H)-one] | 1.8 | 33.5 |  |
